According to US9518046B2 (Calitor Sciences, LLC, priority 2015, dated 2016):

Experiment: Pharmacokinetics after intravenous and oral administration in rats
Format: in vivo
Settings: for CL/F: iv dosing, dose 1 mg/kg (0.5 for Ex. 1, 10, 11, 35; 0.48 for Ex. 24)
Procedure: The LC/MS/MS system used in the analysis consists of an Agilent 1200 Series vacuum degasser, binary pump, well-plate autosampler, thermostatted column compartment, the Agilent G6430 Triple Quadrupole Mass Spectrometer with an electrosprayionization (ESI) source. Quantitative analysis was carried out using MRM mode. The parameters for MRM transitions are in the Table A.
An Agilent XDB-C18, 2.1×30 mm, 3.5 M column was used for the analysis. 5 L of the samples were injected. Analysis condition: The mobile phase was 0.1% formic acid in water (A) and 0.1% formic acid in methanol (B). The flow rate was 0.4 mL/min. And the gradient of Mobile phase was in the Table B.
Alternatively, an Agilent 6330 series LC/MS/MS spectrometer equipped with G1312A binary pumps, a G1367A autosampler and a G1314C UV detector were used in the analysis. An ESI source was used on the LC/MS/MS spectrometer. The analysis was done in positive ion mode as appropriate and the MRM transition for each analyte was optimized using standard solution. A Capcell MP-C18 100×4.6 mm I.D., […] column (Phenomenex, Torrance, Calif., USA) was used during the analysis. The mobile phase was 5 mM ammonia acetate, 0.1% MeOH in water (A): 5 mM ammonia acetate, 0.1% MeOH in acetonitrile (B) (70:30, v/v). The flow rate was 0.6 mL/min. Column was maintained at ambient temperature. 20 μL of the samples were injected.
The compounds disclosed herein are assessed in pharmacokinetic studies in mice, rats, dogs or monkeys. The compounds are administered as a water solution, 2% HPMC+1% TWEEN®80 in water solution, 5% DMSO+5% solutol in saline, 4% MC suspension or capsule. For the intravenous administration, the animals are generally given at 1 or 2 mg/kg dose. For the oral (p.o.) dosing, mice and rats are generally given 5 or 10 mg/kg dose, and dogs and monkeys are generally given 10 mg/kg dose. The blood samples (0.3 mL) are drawn at 0.25, 0.5, 1.0, 2.0, 3.0, 4.0, 6.0, 8.0, 12 and 24 h time points or 0.083, 0.25, 0.5, 1.0, 2.0, 4.0, 6.0, 8.0 and 24 h time points and centrifuged at 3,000 or 4000 rpm for 2 to 10 min. The plasma solutions are collected, stored at −20° C. or −70° C. until analyzed by LC/MS/MS as described above.

| Compound | CL/F (Rats) [mL/min/kg] | also measured |
| --- | --- | --- |
| CC[C@H](Nc1ncnc(N)c1-c1noc(C)n1)c1nc2cccc(Cl)c2c(=O)n1C1CC1 [Ex. 12, (S)-2-(1-((6-amino-5-(5-methyl-1,2,4-oxadiazol-3-yl)pyrimidin-4-yl)amino)-propyl)-5-chloro-3-cyclopropylquinazolin-4(3H)-one] | 31.8 | – |
| CC[C@H](Nc1ncnc(N)c1-c1nnc(C)o1)c1nc2cccc(F)c2c(=O)n1C1CC1 [Ex. 25, (S)-2-(1-((6-amino-S-(5-methyl-1,3,4-oxadiazol-2-yl)pyrimidin-4-yl)amino)-propyl)-3-cyclopropyl-5-fluoroquinazolin-4(3H)-one] | 75.7 | – |
| Cc1noc(-c2c(N)ncnc2N[C@@H](C)c2nc3cccc(Cl)c3c(=O)n2C2CC2)n1 [Ex. 41, (S)-2-(1-((6-amino-5-(3-methyl-1,2,4-oxadiazol-5-yl)pyrimidin-4-yl)amino)-ethyl)-5-chloro-3-cyclopropylquinazolin-4(3H)-one] | 84.3 | – |
| CC[C@H](Nc1ncnc(N)c1-c1nc(C)no1)c1nc2cccc(F)c2c(=O)n1C1CC1 [Ex. 23, (S)-2-(1-((6-amino-5-(3-methyl-1,2,4-oxadiazol-5-yl)pyrimidin-4-yl)amino)-propyl)-3-cyclopropyl-5-fluoroquinazolin-4(3H)-one] | 71.3 | – |
| CC[C@H](Nc1ncnc(N)c1-c1nnc(C)o1)c1nc2cccc(Cl)c2c(=O)n1C1CC1 [Ex. 2, (S)-2-(1-((6-amino-5-(5-methyl-1,3,4-oxadiazol-2-yl)pyrimidin-4-yl)amino)-propyl)-5-chloro-3-cyclopropylquinazolin-4(3H)-one] | 41.2 | – |
| CC[C@@H](Nc1ncnc(N)c1-c1nc(C)no1)c1nc2cccc(Cl)c2c(=O)n1C1CC1 [Ex. 19, (R)-2-(1-((6-amino-5-(3-methyl-1,2,4-oxadiazol-5-yl)pyrimidin-4-yl)amino)propyl)-5-chloro-3-cyclopropylquinazolin-4(3H)-one] | 127 | – |
| CC[C@H](Nc1ncnc(N)c1-c1noc(C)n1)c1nc2cccc(C)c2c(=O)n1C1CC1 | 40.3 | – |
| CCc1noc(-c2c(N)ncnc2N[C@@H](CC)c2nc3cccc(Cl)c3c(=O)n2C2CC2)n1 [Ex. 56, (S)-2-(1-((6-amino-5-(3-ethyl-1,2,4-oxadiazol-5-yl)pyrimidin-4-yl)amino)-propyl)-5-chloro-3-cyclopropylquinazolin-4(3H)-one] | 74.7 | – |
| CC(C)c1noc(-c2c(N)ncnc2N[C@@H](C)c2nc3cccc(Cl)c3c(=O)n2C2CC2)n1 [Ex. 57, (S)-2-(1-((6-amino-5-(3-isopropyl-1,2,4-oxadiazol-5-yl)pyrimidin-4-yl)amino)-ethyl)-5-chloro-3-cyclopropylquinazolin-4(3H)-one] | 83 | – |
| C[C@H](Nc1ncnc(N)c1-c1nnn(C)n1)c1nc2cccc(Cl)c2c(=O)n1C1CC1 [Ex. 42, (S)-2-(1-((6-amino-5-(2-methyl-2H-tetrazol-5-yl)pyrimidin-4-yl)amino)ethyl)-5-chloro-3-cyclopropylquinazolin-4(3H)-one] | 82 | – |
| C[C@H](Nc1ncnc(N)c1-c1ncn(C)n1)c1nc2cccc(Cl)c2c(=O)n1C1CC1 [Ex. 44, (S)-2-(1-((6-amino-5-(1-methyl-1H-1,2,4-triazol-3-yl)pyrimidin-4-yl)amino)-ethyl)-5-chloro-3-cyclopropylquinazolin-4(3H)-one] | 73.7 | – |
| CC[C@H](Nc1ncnc(N)c1-c1ncn(C)n1)c1nc2cccc(Cl)c2c(=O)n1-c1ccc(F)cc1 [Ex. 50, (S)-2-(1-((6-amino-5-(1-methyl-1H-1,2,4-triazol-3-yl)pyrimidin-4-yl)amino)propyl)-5-chloro-3-(4-fluorophenyl)quinazolin-4(3H)-one] | 86.7 | – |
| C[C@H](Nc1ncnc(N)c1-c1nnn(C)n1)c1nc2cccc(-c3cnn(C)c3)c2c(=O)n1C1CC1 [Ex. 75, (S)-2-(1-((6-amino-5-(2-methyl-2H-tetrazol-5-yl)pyrimidin-4-yl)amino)ethyl)-3-cyclopropyl-5-(1-methyl-1H-pyrazol-4-yl)quinazolin-4(3H)-one] | 19.8 | AUC(0-t) (rat, plasma, iv, 1 mg/kg): 841 ng·h/mL; half-life (rat, plasma, iv, 1 mg/kg): 1.41 h; Vd (rat, plasma, iv, 1 mg/kg, read-out: Vss): 2.01 L/kg; bioavailability (rat, plasma, Rats, oral (p.o.) generally 5 or 10 mg/kg versus iv dosing): 72.5% |
| CC[C@H](Nc1ncnc(N)c1-c1nc(C)co1)c1nc2cccc(Cl)c2c(=O)n1C1CC1 [Ex. 52, (S)-2-(1-((6-amino-5-(4-methyloxazol-2-yl)pyrimidin-4-yl)amino)propyl)-5-chloro-3-cyclopropylquinazolin-4(3H)-one] | 85.7 | – |

More lines, main results first:

| CL/F (Rats) [mL/min/kg] | Compound | also measured |
| --- | --- | --- |
| 43.3 | CC[C@H](Nc1ncnc(N)c1-c1ncn(C)n1)c1nc2cccc(Cl)c2c(=O)n1-c1ccccc1 [Ex. 32, (S)-2-(1-((6-amino-5-(1-methyl-H-1,2,4-triazol-3-yl)pyrimidin-4-yl)amino)-propyl)-5-chloro-3-phenylquinazolin-4(3H)-one] | – |
| 3.5 | CC[C@H](Nc1ncnc(N)c1-c1ncnn1C)c1nc2cccc(Cl)c2c(=O)n1-c1ccccc1 [Ex. 10, 2-((1S)-1-((6-amino-5-(1-methyl-H-1,2,4-triazol-5-yl)pyrimidin-4-yl)amino)propyl)-5-chloro-3-phenylquinazolin-4(3H)-one] | – |
| 61.2 | CC[C@H](Nc1ncnc(N)c1-c1ncc(C)o1)c1nc2cccc(C)c2c(=O)n1-c1ccccc1C (single isomer, unassigned) [Ex. 28] | – |
| 118 | CC[C@H](Nc1ncnc(N)c1-c1noc(C)n1)c1nc2ccccc2c(=O)n1-c1ccccc1F | – |
| 70.8 | CC[C@H](Nc1ncnc(N)c1-c1nc(C)no1)c1nc2cccc(Cl)c2c(=O)n1-c1ccccc1 [Ex. 3, (S)-2-(1-((6-amino-5-(3-methyl-1,2,4-oxadiazol-5-yl)pyrimidin-4-yl)amino)-propyl) 5-chloro-3-phenylquinazolin-4(3H)-one] | – |
| 57.3 | CC[C@H](Nc1ncnc(N)c1-c1nnc(C)o1)c1nc2cccc(F)c2c(=O)n1-c1ccccc1 [Ex. 40, (S)-2-(1-((6-amino-5-(5-methyl-1,3,4-oxadiazol-2-yl)pyrimidin-4-yl)amino)-propyl)-5-fluoro-3-phenylquinazolin-4(3H)-one] | – |
| 55.8 | CC[C@H](Nc1ncnc(N)c1-c1nc(C)no1)c1nc2cccc(C)c2c(=O)n1C1CC1 [Ex. 21, (S)-2-(1-((6-amino-5-(3-methyl-1,2,4-oxadiazol-5-yl)pyrimidin-4-yl)amino)-propyl)-3-cyclopropyl-5-methylquinazolin-4(3H)-one] | – |
| 61.8 | CC[C@H](Nc1ncnc(N)c1-c1ncn(C)n1)c1nc2cccc(Cl)c2c(=O)n1-c1ccccc1F (single isomer, unassigned) [Ex. 45] | – |
| 74.2 | CC[C@H](Nc1ncnc(N)c1-c1noc(C)n1)c1nc2cccc(C)c2c(=O)n1-c1ccccc1C (single isomer, unassigned) [Ex. 15] | – |
| 61.7 | CC[C@H](Nc1ncnc(N)c1-c1nc(C)no1)c1nc2cccc(C)c2c(=O)n1-c1ccccc1C (single isomer, unassigned) [Ex. 27] | – |
| 47.3 | CC[C@H](Nc1ncnc(N)c1-c1nnc(C)o1)c1nc2cccc(Cl)c2c(=O)n1-c1ccccc1 [Ex. 1, (S)-2-(1-((6-amino-5-(5-methyl-1,3,4-oxadiazol-2-yl)pyrimidin-4-yl)amino)-propyl)-5-chloro-3-phenylquinazolin-4(3H)-one] | – |
| 53 | CC[C@H](Nc1ncnc(N)c1-c1nnc(C)o1)c1nc2cccc(Cl)c2c(=O)n1-c1ccccc1C [Ex. 35, (S)-2-(1-((6-amino-5-(5-methyl-1,3,4-oxadiazol-2-yl)pyrimidin-4-yl)-amino)propyl)-5-chloro-3-(o-tolyl)quinazolin-4(3H)-one] | – |
| 51.8 | CC[C@H](Nc1ncnc(N)c1-c1nc(C)no1)c1nc2cccc(F)c2c(=O)n1-c1ccccc1 [Ex. 39, (S)-2-(1-((6-amino-5-(3-methyl-1,2,4-oxadiazol-5-yl)pyrimidin-4-yl)amino)-propyl)-5-fluoro-3-phenylquinazolin-4(3H)-one] | – |
| 54.8 | CC[C@H](Nc1ncnc(N)c1-c1ncc(C)o1)c1nc2cccc(Cl)c2c(=O)n1C1CC1 [Ex. 7, (S)-2-(1-((6-amino-5-(5-methyloxazol-2-yl)pyrimidin-4-yl)amino)propyl)-5-chloro-3-cyclopropylquinazolin-4(3H)-one] | – |
| 64.8 | CC[C@H](Nc1ncnc(N)c1-c1nnc(C)o1)c1nc2cccc(C)c2c(=O)n1-c1ccccc1C (single isomer, unassigned) [Ex. 31] | – |
